Biological target: T1, human pancreatic lipase (Homo sapiens, UniProt P16233)
T1 construct: purchased MilliporeSigma SRE0028
Test: Activity of purified pancreatic lipase, radiolabeled triolein
Type: biochemical
Conditions: NG-497 100 µM
Description: Fig. S3: Investigation of off-target effects of NG-497 on structurally and functionally related lipid hydrolases. (a) PNPLA1-dependent formation of acylceramides was monitored in a cell-based assay in HEK293T cells. Experiments were performed in the presence or absence of NG-497 (40 µM) and the non-selective lipase inhibitor Orlistat (40 µM). Orlistat, but not NG-497, inhibited PNPLA1/CGI-58-dependent ω-O-acylceramide formation. (b-h) Enzymes were overexpressed in Expi293 cells and cell lysates were used as source of enzymatic activity. […] Experiments were performed in the presence or absence of NG-497 (100 µM) and the formation of reaction products was monitored. […]
Data were calculated relative to the basal activity detected in LacZ-transfected controls. […]
LPL activity was inhibited using an anti-LPL antibody. All data are presented as mean ± S.D. Statistical significance was determined via ANOVA followed by Bonferroni post hoc test ( ***, p < 0.001). […]
Released free fatty acids were quantified via NEFA C kit (Fujifilm Wako Chemicals, Neuss, Germany) and release of p-nitrophenol was measured at 405 nm. […] Cellular ω-O-acylceramide formation was monitored using [1-14C]linoleic acid as tracer. […] The activity of purified human pancreatic lipase (MilliporeSigma #SRE0028) was determined as previously described7 in the presence or absence of NG-497 (100µM) or Orlistat (20 µM). […]

T1 sequence (P16233 17-465): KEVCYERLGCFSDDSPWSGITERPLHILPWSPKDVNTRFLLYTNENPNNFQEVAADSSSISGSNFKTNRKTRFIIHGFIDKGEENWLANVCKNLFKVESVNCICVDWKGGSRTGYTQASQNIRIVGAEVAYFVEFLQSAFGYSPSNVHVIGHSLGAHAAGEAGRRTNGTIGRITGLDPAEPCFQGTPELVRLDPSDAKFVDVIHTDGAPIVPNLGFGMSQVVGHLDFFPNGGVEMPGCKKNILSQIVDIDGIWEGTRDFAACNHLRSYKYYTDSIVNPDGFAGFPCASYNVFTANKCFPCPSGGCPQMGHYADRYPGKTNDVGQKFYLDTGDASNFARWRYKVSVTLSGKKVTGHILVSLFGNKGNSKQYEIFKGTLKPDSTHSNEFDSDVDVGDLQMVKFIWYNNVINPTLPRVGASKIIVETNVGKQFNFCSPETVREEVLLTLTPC

## CCOc1ccc(-c2cc(OC)cc(C(=O)OC(C)C)n2)cc1 [NG-497]
  inhibition of pancreatic lipase: did not observe inhibition

Source: PMC9011347, “Small-Molecule Inhibitors Targeting Lipolysis in Human Adipocytes” (Journal of the American Chemical Society, 2022)
